Measured values: patent publication US20210070748A1, “INHIBITORS OF BRUTONS TYROSINE KINASE” (Pharmacyclics LLC, priority 2015, published 2021)

Tests used:
Format in all cases: biochemical
[1] = target: T1, BTK-WT (Homo sapiens, UniProt Q06187); test: Btk in vitro inhibitory activity (one of Method A TR-FRET, Method B electrophoretic mobility shift, Method C radiometric filter binding); conditions: E compounds, Table 17; read-out: IC50 BTK-WT
T1 construct: purified from insect cells as a full-length construct containing an N-terminal 6X-His tag; His6 (N); made in house; host or cells: insect cells (baculovirus Sf21 in Method B)
T1 sequence (Q06187 whole entry): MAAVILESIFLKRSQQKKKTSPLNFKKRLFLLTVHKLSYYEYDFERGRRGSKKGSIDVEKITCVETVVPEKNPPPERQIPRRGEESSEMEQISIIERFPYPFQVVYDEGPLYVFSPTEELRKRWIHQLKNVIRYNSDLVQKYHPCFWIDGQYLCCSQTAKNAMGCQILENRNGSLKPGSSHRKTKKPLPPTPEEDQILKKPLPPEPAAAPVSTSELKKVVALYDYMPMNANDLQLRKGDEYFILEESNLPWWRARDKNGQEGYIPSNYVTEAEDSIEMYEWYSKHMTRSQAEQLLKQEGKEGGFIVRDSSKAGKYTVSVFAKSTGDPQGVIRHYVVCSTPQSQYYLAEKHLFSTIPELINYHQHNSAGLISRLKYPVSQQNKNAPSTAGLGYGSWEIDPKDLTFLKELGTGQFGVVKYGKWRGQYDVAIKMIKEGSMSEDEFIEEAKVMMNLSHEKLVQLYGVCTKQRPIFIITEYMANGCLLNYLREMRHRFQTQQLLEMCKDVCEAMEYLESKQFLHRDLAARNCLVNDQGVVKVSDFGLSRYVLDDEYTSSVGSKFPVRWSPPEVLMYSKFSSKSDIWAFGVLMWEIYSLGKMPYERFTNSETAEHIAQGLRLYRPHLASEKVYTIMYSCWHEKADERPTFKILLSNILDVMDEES

[2] = target: LCK (Homo sapiens, UniProt P06239); test: Inhibition of a panel of kinases, in vitro HotSpot kinase assay: LCK; conditions: E compounds, Table 17; read-out: IC50 LCK
LCK, sequence (P06239 whole entry): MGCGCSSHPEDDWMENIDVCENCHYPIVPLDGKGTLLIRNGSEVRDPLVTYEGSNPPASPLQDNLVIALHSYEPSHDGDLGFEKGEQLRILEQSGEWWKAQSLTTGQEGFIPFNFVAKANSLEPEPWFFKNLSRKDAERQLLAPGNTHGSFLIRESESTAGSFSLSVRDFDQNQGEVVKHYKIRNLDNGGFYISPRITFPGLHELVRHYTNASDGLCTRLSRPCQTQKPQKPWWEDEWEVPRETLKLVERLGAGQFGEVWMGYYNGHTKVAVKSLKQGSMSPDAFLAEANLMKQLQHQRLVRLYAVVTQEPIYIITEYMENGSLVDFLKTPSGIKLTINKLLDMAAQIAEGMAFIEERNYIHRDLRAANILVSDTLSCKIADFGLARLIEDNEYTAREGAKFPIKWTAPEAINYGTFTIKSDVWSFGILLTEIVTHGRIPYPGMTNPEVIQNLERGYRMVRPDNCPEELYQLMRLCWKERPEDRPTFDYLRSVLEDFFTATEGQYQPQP

[3] = target: T2, ITK (Homo sapiens, UniProt Q08881); test: Inhibition of a panel of kinases, in vitro HotSpot kinase assay: ITK; conditions: E compounds, Table 17
T2 sequence (Q08881 1-620): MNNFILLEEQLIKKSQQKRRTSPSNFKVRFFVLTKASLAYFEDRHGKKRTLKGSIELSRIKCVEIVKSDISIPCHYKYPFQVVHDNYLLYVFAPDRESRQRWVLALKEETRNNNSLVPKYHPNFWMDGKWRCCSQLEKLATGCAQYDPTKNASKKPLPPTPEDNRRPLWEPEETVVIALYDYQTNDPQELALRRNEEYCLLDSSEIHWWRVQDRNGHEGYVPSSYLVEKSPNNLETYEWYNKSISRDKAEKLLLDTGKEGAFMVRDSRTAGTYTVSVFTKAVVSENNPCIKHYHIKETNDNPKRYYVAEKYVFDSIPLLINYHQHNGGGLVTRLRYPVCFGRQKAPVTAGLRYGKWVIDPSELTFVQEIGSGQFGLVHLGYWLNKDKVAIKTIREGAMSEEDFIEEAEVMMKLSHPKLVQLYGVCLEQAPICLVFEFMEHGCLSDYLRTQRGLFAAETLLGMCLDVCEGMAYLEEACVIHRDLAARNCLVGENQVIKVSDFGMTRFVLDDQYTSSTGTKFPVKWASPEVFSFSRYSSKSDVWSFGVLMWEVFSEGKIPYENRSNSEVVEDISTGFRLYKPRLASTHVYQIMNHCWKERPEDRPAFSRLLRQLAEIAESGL
Protocol: (§1) The degree of inhibition of a panel of kinases is determined using the in vitro HotSpot kinase assay (purified enzymes, ^33P-ATP, an appropriate substrate and 1 μM ATP).

[4] = target: EGFR (Homo sapiens, UniProt P00533); test: Inhibition of a panel of kinases, in vitro HotSpot kinase assay: EGFR; conditions: E compounds, Table 17
EGFR, sequence (P00533 25-1210): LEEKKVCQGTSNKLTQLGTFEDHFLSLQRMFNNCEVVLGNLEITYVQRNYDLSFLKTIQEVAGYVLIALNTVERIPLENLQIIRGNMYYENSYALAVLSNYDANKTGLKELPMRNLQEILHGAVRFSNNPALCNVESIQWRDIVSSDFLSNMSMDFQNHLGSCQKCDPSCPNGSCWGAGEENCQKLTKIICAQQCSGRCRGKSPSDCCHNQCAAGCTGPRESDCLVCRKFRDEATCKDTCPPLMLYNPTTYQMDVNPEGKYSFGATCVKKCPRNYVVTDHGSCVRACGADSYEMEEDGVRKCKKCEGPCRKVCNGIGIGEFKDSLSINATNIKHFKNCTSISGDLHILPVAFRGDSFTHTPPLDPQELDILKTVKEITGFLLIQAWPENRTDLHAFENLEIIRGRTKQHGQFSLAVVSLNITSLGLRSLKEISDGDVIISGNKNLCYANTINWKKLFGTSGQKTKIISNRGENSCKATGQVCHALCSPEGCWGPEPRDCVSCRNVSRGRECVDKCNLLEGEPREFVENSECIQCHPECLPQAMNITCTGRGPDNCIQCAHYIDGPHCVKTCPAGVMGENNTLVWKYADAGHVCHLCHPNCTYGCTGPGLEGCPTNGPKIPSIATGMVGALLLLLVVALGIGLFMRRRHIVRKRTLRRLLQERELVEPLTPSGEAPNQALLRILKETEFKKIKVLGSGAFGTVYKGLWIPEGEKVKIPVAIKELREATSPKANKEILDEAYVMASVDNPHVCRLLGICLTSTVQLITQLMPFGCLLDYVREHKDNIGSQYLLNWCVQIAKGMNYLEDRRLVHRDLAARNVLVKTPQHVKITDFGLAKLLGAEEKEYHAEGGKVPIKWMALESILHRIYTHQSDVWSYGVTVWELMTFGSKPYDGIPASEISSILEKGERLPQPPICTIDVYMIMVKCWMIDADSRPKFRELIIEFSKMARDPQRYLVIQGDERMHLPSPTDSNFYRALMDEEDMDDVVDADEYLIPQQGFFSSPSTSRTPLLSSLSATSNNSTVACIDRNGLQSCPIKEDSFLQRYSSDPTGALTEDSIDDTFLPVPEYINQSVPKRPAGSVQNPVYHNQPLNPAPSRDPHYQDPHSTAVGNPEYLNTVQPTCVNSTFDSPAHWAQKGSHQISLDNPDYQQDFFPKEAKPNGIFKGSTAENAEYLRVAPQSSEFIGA
Protocol: as §1

[5] = target: T3, TEC (Homo sapiens, UniProt P42680); test: Inhibition of a panel of kinases, in vitro HotSpot kinase assay: TEC; conditions: E compounds, Table 17
T3 sequence (P42680 1-631): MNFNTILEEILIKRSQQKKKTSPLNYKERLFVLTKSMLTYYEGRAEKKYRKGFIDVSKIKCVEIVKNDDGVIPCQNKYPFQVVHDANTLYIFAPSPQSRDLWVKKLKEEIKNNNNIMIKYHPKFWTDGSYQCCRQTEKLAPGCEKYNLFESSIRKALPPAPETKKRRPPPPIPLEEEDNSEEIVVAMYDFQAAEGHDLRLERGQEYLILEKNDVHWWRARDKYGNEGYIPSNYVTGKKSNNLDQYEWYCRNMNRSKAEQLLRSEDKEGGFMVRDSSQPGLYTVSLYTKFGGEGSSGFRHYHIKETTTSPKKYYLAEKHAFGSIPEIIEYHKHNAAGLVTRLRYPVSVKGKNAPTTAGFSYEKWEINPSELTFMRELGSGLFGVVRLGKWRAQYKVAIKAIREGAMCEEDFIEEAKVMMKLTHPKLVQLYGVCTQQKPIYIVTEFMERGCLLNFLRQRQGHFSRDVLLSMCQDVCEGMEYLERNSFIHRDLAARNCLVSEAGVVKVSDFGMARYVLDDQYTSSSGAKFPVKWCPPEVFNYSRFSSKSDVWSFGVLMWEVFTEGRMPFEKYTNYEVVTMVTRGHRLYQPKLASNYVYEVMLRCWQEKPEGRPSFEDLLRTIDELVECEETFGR
Protocol: as §1

| SMILES | IC50 [1] [nM] | IC50 [2] [nM] | IC50 [3] [nM] | IC50 [4] [nM] | IC50 [5] [nM] |
| --- | --- | --- | --- | --- | --- |
| C=CC(=O)N1CCC[C@@H](Nc2cnc(C(N)=O)c(Nc3ccc(C4(C)CCN(C5CCCC5)CC4)cc3)n2)[C@H]1C [Example E-100, 5-((2R,3R)-1-acryloyl-2-methylpiperidin-3-ylamino)-3-(4-(1-cyclopentyl-4-methylpiperidin-4-yl)phenylamino)pyrazine-2-carboxamide] | ≤ 10 | 10 to 100 | ≤ 10 | ≤ 10 | ≤ 10 |
| C=CC(=O)N1CC[C@@H](N(C)c2cnc(C(N)=O)c(Nc3ccc(-c4ncccn4)cc3)n2)C1 [Example E-117, (R)-5-((1-acryloylpyrrolidin-3-yl)(methyl)amino)-3-(4-(pyrimidin-2-yl)phenylamino)pyrazine-2-carboxamide] | ≤ 10 |  | ≤ 10 | 10 to 100 | ≤ 10 |
| C=CC(=O)N1CCC[C@@H](Nc2nnc(C(N)=O)c(Nc3ccc4c(cnn4CC)c3)n2)C1 [Example E-66, (R)-3-(1-acryloylpiperidin-3-ylamino)-5-(1-ethyl-1H-indazol-5-ylamino)-1,2,4-triazine-6-carboxamide] | ≤ 10 |  | ≤ 10 |  | ≤ 10 |
| C=CC(=O)N[C@@H]1CCCN(c2cnc(C(N)=O)c(Nc3cnn(C)c3)n2)[C@@H]1C [Example E-98, 5-((2R,3R)-3-acrylamido-2-methylpiperidin-1-yl)-3-(1-methyl-1H-pyrazol-4-ylamino)pyrazine-2-carboxamide] | ≤ 10 |  | 100 to 1000 | 100 to 1000 | ≤ 10 |
| C=CC(=O)N1CCC[C@@H](Nc2nnc(C(N)=O)c(Nc3ccc(C#N)cc3)n2)C1 [Example E-79, (R)-3-(1-acryloylpiperidin-3-ylamino)-5-(4-cyanophenylamino)-1,2,4-triazine-6-carboxamide] | ≤ 10 |  | 10 to 100 |  | ≤ 10 |
| C=CC(=O)N1CC[C@@H](N(C)c2cnc(C(N)=O)c(Nc3ccc(-c4ncco4)cc3)n2)C1 [Example E-118, (R)-5-((1-acryloylpyrrolidin-3-yl)(methyl)amino)-3-(4-(oxazol-2-yl)phenylamino)pyrazine-2-carboxamide] | ≤ 10 |  | ≤ 10 | 10 to 100 | ≤ 10 |
| C=CC(=O)NC[C@@H]1CCCCN1c1nnc(C(N)=O)c(Nc2ccc(C(C)C)cc2)n1 [Example E-89, (S)-3-(2-(acrylamido-methyl)piperidin-1-yl)-5-(4-isopropyl-phenylamino)-1,2,4-triazine-6-carboxamide] | 100 to 1000 |  | 1000 to 10000 |  | 100 to 1000 |
| C=CC(=O)N1CCC[C@@H](Nc2nnc(C(N)=O)c(Nc3ccc(C4(C#N)CCCC4)cc3)n2)C1 [Example E-46, (R)-3-(1-acryloylpiperidin-3-ylamino)-5-(4-(1-cyanocyclopentyl)phenylamino)-1,2,4-triazine-6-carboxamide] | ≤ 10 |  | ≤ 10 | ≤ 10 | ≤ 10 |
| C=CC(=O)N1CC[C@@H](N(C)c2cnc(C(N)=O)c(Nc3ccc(-n4nccn4)cc3)n2)C1 [Example E-116, (R)-3-(4-(2H-1,2,3-triazol-2-yl)phenylamino)-5-((1-acryloylpyrrolidin-3-yl)(methyl)amino) pyrazine-2-carboxamide] | ≤ 10 |  | ≤ 10 | 10 to 100 | ≤ 10 |

The remaining lines, values ahead:

| IC50 [1] [nM] | IC50 [2] [nM] | IC50 [3] [nM] | IC50 [4] [nM] | IC50 [5] [nM] | SMILES |
| --- | --- | --- | --- | --- | --- |
| ≤ 10 | 10 to 100 | ≤ 10 | ≤ 10 | ≤ 10 | C=CC(=O)N1CCC[C@@H](Nc2cnc(C(N)=O)c(Nc3ccc(C4CCN(C5CCCC5)CC4)cc3)n2)[C@H]1C [Example E-99, 5-((2R,3R)-1-acryloyl-2-methylpiperidin-3-ylamino)-3-(4-(1-cyclopentylpiperidin-4-yl)phenylamino)pyrazine-2-carboxamide] |
| ≤ 10 |  | ≤ 10 | 10 to 100 | ≤ 10 | C=CC(=O)N1CCC[C@@H](N(C)c2cnc(C(N)=O)c(Nc3cc(C)ns3)n2)C1 [Example E-124, (R)-5-((1-acryloylpiperidin-3-yl)(methyl)amino)-3-(3-methylisothiazol-5-ylamino)pyrazine-2-carboxamide] |
| ≤ 10 |  | 10 to 100 | ≤ 10 | ≤ 10 | C=CC(=O)N1CCC[C@@H](Nc2nnc(C(N)=O)c(Nc3ccc(-c4nn[nH]n4)cc3)n2)C1 [Example E-64, (R)-5-(4-(2H-tetrazol-5-yl)phenylamino)-3-(1-acryloylpiperidin-3-ylamino)-1,2,4-triazine-6-carboxamide] |
| ≤ 10 |  | 10 to 100 | 10 to 100 | ≤ 10 | C=CC(=O)N1CCC[C@@H](Nc2nnc(C(N)=O)c(Nc3cccc(-c4ncccn4)c3)n2)C1 [Example E-55, (R)-3-(1-acryloylpiperidin-3-ylamino)-5-(3-(pyrimidin-2-yl)phenylamino)-1,2,4-triazine-6-carboxamide] |
| ≤ 10 |  | ≤ 10 | ≤ 10 | ≤ 10 | C=CC(=O)N1CC[C@@H](N(C)c2cnc(C(N)=O)c(Nc3ccc(C4CCN(C)CC4)cc3)n2)C1 [Example E-115, (R)-5-((1-acryloylpyrrolidin-3-yl)(methyl)amino)-3-(4-(1-methylpiperidin-4-yl)phenylamino)pyrazine-2-carboxamide] |
| ≤ 10 |  | 10 to 100 | ≤ 10 | ≤ 10 | C=CC(=O)N1CCC[C@@H](Nc2nnc(C(N)=O)c(Nc3ccc(-c4nccs4)cc3)n2)C1 [Example E-63, (R)-3-(1-acryloylpiperidin-3-ylamino)-5-(4-(thiazol-2-yl)phenylamino)-1,2,4-triazine-6-carboxamide] |
| ≤ 10 | 100 to 1000 | ≤ 10 | ≤ 10 | ≤ 10 | C=CC(=O)N1CCC[C@@H](Nc2nnc(C(N)=O)c(Nc3ccc4ncccc4c3)n2)C1 [Example E-68, (R)-3-(1-acryloylpiperidin-3-ylamino)-5-(quinolin-6-ylamino)-1,2,4-triazine-6-carboxamide] |
| ≤ 10 | 100 to 1000 | 10 to 100 | 10 to 100 | ≤ 10 | C=CC(=O)N1CCC[C@@H](Nc2nnc(C(N)=O)c(Nc3cccc(-n4nccn4)c3)n2)C1 [Example E-61, (R)-5-(3-(2H-1,2,3-triazol-2-yl)phenylamino)-3-(1-acryloylpiperidin-3-ylamino)-1,2,4-triazine-6-carboxamide] |
| ≤ 10 |  | ≤ 10 | ≤ 10 | ≤ 10 | C=CC(=O)N1CCC[C@@H](Nc2nnc(C(N)=O)c(Nc3ccc(S(C)(=O)=O)cc3)n2)C1 [Example E-47, (R)-3-(1-acryloylpiperidin-3-ylamino)-5-(4-(methylsulfonyl)phenyl-amino)-1,2,4-triazine-6-carboxamide] |
| ≤ 10 |  | ≤ 10 | 10 to 100 | ≤ 10 | C=CC(=O)N1CC[C@@H](N(C)c2cnc(C(N)=O)c(Nc3cnn(C)c3)n2)C1 [Example E-119, (R)-5-((1-acryloylpyrrolidin-3-yl)(methyl)amino)-3-(1-methyl-1H-pyrazol-4-ylamino)pyrazine-2-carboxamide] |
| ≤ 10 |  | ≤ 10 | 10 to 100 | ≤ 10 | C=CC(=O)N1CCC[C@@H](Nc2nnc(C(N)=O)c(Nc3ccc(N4CCOCC4=O)cc3)n2)C1 [Example E-62, (R)-3-(1-acryloylpiperidin-3-ylamino)-5-(4-(3-oxomorpholino)phenyl-amino)-1,2,4-triazine-6-carboxamide] |
